# Measurements from US20240026268A1, “MICROFLUIDIC HANGING DROP CULTURE DEVICE FOR CULTURING CELL AGGREGATE” (CELLARTGEN INC., priority 2021, published 2024).
# Experiments:
# [1] = test system: human iPSC-derived nonalcoholic steatohepatitis organoids; assay: Effective drug test on human iPSC-derived nonalcoholic steatohepatitis organoids (HEMKS) in 100-well HD chip: qPCR, immunostaining, BODIPY; type: cell-based; conditions: oleic acid 500 μM + ezetimibe 50 μM for 2 days
# Procedure: Human iPSC-derived liver organoids (HEMKS) were fabricated in the high-throughput 100-well HD chip. Then, a normal group was cultured in a normal culture medium for 7 days, whereas a nonalcoholic steatohepatitis (NASH) group was normally cultured for 5 days and then further cultured for 2 days in the culture medium mixed with 500 μM oleic acid, a free fatty acid, to induce steatohepatitis. Ezetimibe (Eze), an effective drug for treatment of fatty liver, is a drug candidate group that serves as a cholesterol absorption inhibitor and is conventionally used to treat high blood cholesterol and lipid abnormalities. After 5 days of normal culture, oleic acid (500 μM) and ezetimibe (50 μM) were mixed in the culture medium, followed by additional culture for 2 days to test the drug for steatohepatitis. After a total of 7 days of culture, the degree of fat accumulation was compared and the maker expression and gene expression were compared between groups by immunostaining and quantitative PCR analysis. For more accurate steatohepatitis modeling and drug screening, liver organoids containing immune cells (Kupffer cells) and mesenchymal cells (hepatic stellate cells) constituting a liver tissue microenvironment were fabricated. To this end, human iPSC-derived liver organoids were fabricated at a ratio of iPSC hepatic cells (H): vascular endothelial cells (E): mesenchymal stem cells (M): iPSC-derived Kupffer cells (K): iPSC-derived hepatic stellate cells (S)=10:7:2:2:1 (HEMKS).
# [2] = test system: human iPSC-derived nonalcoholic steatohepatitis organoids; assay: ROS quantitative analysis by CM-H2DCFDA staining of NASH organoids in 100-well HD chip; type: cell-based; conditions: NASH+Eze versus NASH organoid
# Procedure: To check the accumulation of reactive oxygen species (ROS) caused by oxidative stress in Normal, NASH and NASH+Eze human iPSC-derived liver organoids (HEMKS) fabricated in the high-throughput 100-well HD chip by the same culture method as described above, ROS activity and quantitative analysis between the groups was performed by CM-H2DCFDA staining, which is oxidative stress detection assay.
# The high-throughput HD chip was designed and fabricated with the same dimensions as a commercially available conventional 384-well plate.
# [3] = quantitative PCR, versus NASH group
smiles,measurement,setting,value
"O=C1[C@H](CC[C@H](O)c2ccc(F)cc2)[C@@H](c2ccc(O)cc2)N1c1ccc(F)cc1 [Eze, Ezetimibe]","expression level of ALB, a hepatic differentiation marker","[1]; immunostaining, versus NASH organoid",recovered to a certain level
same,fatty acid accumulation (BODIPY fluorescence signal labeling lipid),[1]; versus NASH organoid,decreased
same,"expression level of PLIN2, a fatty acid accumulation marker",[1]; [3],decreased
same,"expression level of SMA, liver fibrosis marker",[1]; [3],decreased
same,"expression level of TNF-α, an inflammation marker",[1]; [3],decreased
same,"expression level of VIM, liver fibrosis marker",[1]; [3],decreased
same,oxidative stress caused by ROS,"[2]; CM-H2DCFDA staining, imaging",decreased to a certain level or less
same,fluorescence intensity (ROS oxidative stress),[2]; on-chip analysis with plate reader,decreased
